# Test results from US20260209789A1, “TRIGGER-INDUCIBLE MRNA CIRCULARIZATION” (WESTLAKE UNIVERSITY, priority 2022, published 2026).
# How the values were obtained:
# [1] = system: MAPK signaling (phosphorylated ERK2); assay: Phosphorylation-dependent STIF reconstitution sensor (pE59/ERK2), NanoLuc/FLuc; assay type: cell-based; settings: 100 ng/mL recombinant human EGF, 48 h
# Description: FIG. 11. Genetically encoded signalling-specific sensors employing phosphorylation-dependent STIF reconstitution. (A) L7Ae-based STIFs. […] For (−) conditions, pcDNA3.1 (+) was transfected instead of expression vectors. Data presented are mean±SD of relative luciferase activity (NanoLuc/FLuc), n=3 individual experiments. (B) MCP-based STIFs. […] For (−) conditions, pcDNA3.1 (+) was transfected instead of expression vectors. Data presented are mean±SD of relative luciferase activity (NanoLuc/FLuc), n=3 individual experiments.
# Translational regulation by trigger-inducible STIF systems can also be engineered in various other ways. […] In this configuration, HEK-293 cells were transfected with an expression vector for SEAP-mRNA containing 16 tandem MS2-box repeats in the 3′-UTR (SEQ-ID NO: 138) and constitutive expression vectors for MCP-LaM8AK47 (SEQ-ID NO: 241) and mCherry-NSP3 (SEQ-ID NO: 250). […] In the future, engineering of similar sensors for other signalling pathways can be readily achieved by exchanging the pE59 (SEQ-ID NO: 110) and ERK2 (SEQ-ID NO: 85) domains by other signalling specific PPI systems. […]
# [2] = system: STIF-specific target gene mRNA; assay: Translational regulation by constitutive bipartite STIF reconstitution (SEAP, NanoLuc) in HEK-293 cells; assay type: cell-based, human; settings: 48 h
# Description: FIG. 8. Translational regulation by spontaneous assembly of bipartite STIFs. (A) Translational regulation through constitutive STIF reconstitution. […] Transfection of pcDNA3.1 (+) instead of NSP3-fusion proteins was used as a negative control. […] (B) Compatibility of STIF-mediated translational regulation with split-complementation approaches. […] For (−) conditions, pcDNA3.1 (+) was transfected instead of expression vectors.
# FIG. 9. Translational regulation through constitutive Coh2/DocS-mediated STIF reconstitution. (A) Site-specific translational activation by eIFBP overexpression. HEK-293 cells were (co-) transfected with an expression vector for SEAP-mRNA containing 24 tandem C/D-box-(left panel, pSL355) or MS2-box repeats in the 3′-UTR (right panel, pSL468), constitutive expression vectors for L7Ae (left) or MCP (right) fused to Coh2 (L7Ae-Coh2, pSL83; MCP-Coh2, pSL674) or EGFP (L7Ae-EGFP, pSL1078; MCP-EGFP, pSL435) and constitutive expression vectors for various chimeric Coh2-specific DocS-containing eIFBP fusions (PABP-DocS, pSL47; DocS-eIF4G, pSL87; DocS-eIF4E, pLZ312; DocS-NSP3, pSL66; DocS-VPg, pLZ311). Transfection of pcDNA3.1 (+) instead of DocS- or MCP-expressing vectors was used as a negative control. […] SEAP (left) and NanoLuc levels in culture supernatants (right) were quantified at 48 h post-transfection. […]
# [3] = system: GNCR: NS3a system; assay: Grazoprevir-inducible SEAP translation in HEK-293 cells (fold-change, dose-dependence, kinetics vs transcriptional switch); settings: three tandem GNCR and NS3a repeats
# Description: Optimization of an L7Ae-based grazoprevir-inducible gene switch. (A) Translational regulation by grazoprevir-dependent STIF association. […] (B) Translational regulation by different grazoprevir-dependent NSP3-fusion proteins. […] (C) Translational regulation by different grazoprevir-dependent L7Ae-fusion proteins.
# Optimized L7Ae- and MCP-based grazoprevir-inducible gene switch in mammalian cells. (A) Optimized grazoprevir-inducible regulation of SEAP translation. […] (B, C) Dose-dependent grazoprevir-inducible SEAP expression.
# Comparative analysis of gene switches based on STIF-based translation and state-of-the-art transcription-centered designs. (A) Kinetics of grazoprevir-inducible SEAP expression. […] (B) Endpoint performance of grazoprevir-induced translational and transcriptional gene switch switches.
# [4] = target: T1, (DocS)3 (Acetivibrio thermocellus, UniProt A3DH67); assay: Coh2/DocS-based STIF protein sensor for cytosolic (DocS)3; settings: different amounts of pSL244, 48 h
# T1 sequence (A3DH67 with tags, fused parts or gaps): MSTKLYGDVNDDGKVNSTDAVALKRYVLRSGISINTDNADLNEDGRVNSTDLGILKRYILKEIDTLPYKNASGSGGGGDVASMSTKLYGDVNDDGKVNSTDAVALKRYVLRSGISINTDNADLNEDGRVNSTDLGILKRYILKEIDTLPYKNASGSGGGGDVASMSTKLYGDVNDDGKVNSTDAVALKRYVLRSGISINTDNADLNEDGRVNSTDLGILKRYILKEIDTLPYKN
# [5] = system: STIF-specific target gene mRNA; assay: STIF-mediated translation of reporter mRNA (SEAP, FLuc, EGFP) in HEK-293 cells; assay type: cell-based, human; settings: 48 h; for induction folds between basal and activated states (SEAP): HHR-mediated poly (A)-removal, 24 aptamer repeats
# Description: FIG. 2. Design and validation of different STIF constructs consisting of RNA-binding protein (RBPs) fused to different eIF4F-binding moieties (eIFBP). (A) Synthetic translation initiation factors (STIFs)-mediated translation of L7Ae-specific SEAP-mRNA with shRNA-216-cleavable poly (A). […] (B) STIF-mediated translation of MCP-specific SEAP-mRNA with shRNA-216-cleavable poly (A). […] (C) Correlation between C/D-box-based aptamer region size and STIF-mediated SEAP expression. HEK-293 cells were co-transfected with SEAP expression vectors containing different tandem repeats of the L7Ae-specific C/D-box aptamer ((C/D-box)8, pSL31; (C/D-box)12, pSL81; (C/D-box)16, pSL80; (C/D-box)24, pSL88), an shRNA-216 expression vector (pSL4) and an expression vector for either PABP-L7Ae (ON; pLZ16) or a Coh2-L7Ae protein incapable of binding eIF4F (OFF; pSL44). […] Data presented are mean±SD, n=4 individual experiments. (D) Correlation between MS2-box-based aptamer region size and STIF-mediated SEAP expression. HEK-293 cells were transfected with SEAP expression vectors containing different tandem repeats of the MCP-specific MS2-box aptamer ((MS2-box)8, pSL515; (MS2-box)12, pSL1284; (MS2-box)16, pSL516; (MS2-box)24, pSL468) and constitutive expression vectors for either MCP-NSP3 (ON; pSL95) or an MCP-Coh2 protein incapable of binding eIF4F (OFF; pSL674). […] Data presented are mean±SD, n=4 individual experiments.
# FIG. 5. Translational regulation of SEAP-, Firefly Luciferase and EGFP-mRNA with self-cleavable poly (A). (A) STIF-mediated translation of L7Ae-specific SEAP-mRNA with HHR-cleavable poly (A). […] (B) STIF-mediated translation of MCP-specific SEAP-mRNA with HHR-cleavable poly (A). […] (C, D) STIF-mediated regulation at the protein level of gene expression.
# [6] = Treatment of type-1 diabetes by oral grazoprevir-inducible insulin expression; settings: T1D mice with grazoprevir-inducible insulin gene therapy, oral 3 mg/kg
# [7] = Grazoprevir-inducible SEAP production in mice (hydrodynamic tail vein injection); settings: C57BL/6 mice, hydrodynamically injected gene switch, 3 daily administrations, 24 h after first
# [8] = 20 h after first administration
compound,measurement,setting,value
"EGF: Animal-free recombinant human EGF (NSDSECPLSHDGYCLHDGVCMYIEALDKYACNCVVGYIGERCQYRDLKWWELR; Epidermal growth factor; UniProt P01133 971-1023, looked up)",reporter levels (NanoLuc/FLuc) vs MAPK activity,[1],increases in reporter levels correlate with increased MAPK activity
MCP-Coh2: bipartite STIF regulator,target gene translation by spontaneous STIF assembly (SEAP),[2],modular and effective translational regulation
L7Ae-(NS3a)3: trigger-inducible STIF regulator,"regulation performance (fold-change, dose-dependence, activation kinetics)",[3],best regulation performance
MCP-(Coh2)3: bipartite STIF regulator,detection of cytosolic (DocS)3 (SEAP),[4],in a dose-dependent manner
L7Ae-NSP3: STIF fusion protein,induction folds between basal and activated states (SEAP),[5],highest induction folds
MCP-NSP3: STIF fusion protein,induction folds between basal and activated states (SEAP),[5],highest induction folds
same,"regulation of other reporter genes (FLuc, EGFP)",[5]; MCP-specific poly (A)-surrogate,could also regulate a variety of other reporter genes
MCP-(NS3a)3: trigger-inducible STIF regulator,"regulation performance (fold-change, dose-dependence, activation kinetics)",[3],best regulation performance
C=C[C@@H]1C[C@]1(NC(=O)[C@@H]1C[C@@H]2CN1C(=O)[C@H](C(C)(C)C)NC(=O)O[C@@H]1C[C@H]1CCCCCc1nc3ccc(OC)cc3nc1O2)C(=O)NS(=O)(=O)C1CC1.O [grazoprevir],correction of hyperglycemia (fasting glycemia),[6]; [8],almost complete correction
same,correction of insulin deficiency (blood insulin levels),[6]; [8],almost complete correction
same,correction of glucose intolerance (intraperitoneal GTT),[6]; 24 h after first administration,almost complete correction
same,oral dose sufficient to fully activate the system (SEAP levels in the bloodstream),[7],3 mg/kg
